Laboratory results reported in the supplement of paper PMC10307832.

Compound: C[C@@H](C(=O)N[C@@H](C1CCCCC1)C(=O)N2CCC[C@H]2C(=O)N[C@@H]3[C@@H](CC4=CC=CC=C34)OCC#CC#CCO[C@@H]5CC6=CC=CC=C6[C@@H]5NC(=O)[C@@H]7CCCN7C(=O)[C@H](C8CCCCC8)NC(=O)[C@H](C)NC)NC [AZD5582] + CCNC(=O)c1noc(-c2cc(C(C)C)c(O)cc2O)c1-c1ccc(CN2CCOCC2)cc1 [Luminespib] (partner 0.01 µM)
Test: relative viability (nuclei count vs DMSO), 5 days (fraction); higher = more cells survive
Procedure, shortened: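 Lung cancer cell lines, seeded in 1536-well plates, were treated the following day by pin tool with a single drug or with five library-drug doses (not always all listed) in √10 steps on top of a fixed anchor-drug dose. Cells were fixed and nuclei stained in one step after 5 days, and nuclei were counted. Relative viability is the nuclei count for treated wells divided by that for vehicle wells, reported as medians of duplicate plates.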

Cell Line	relative viability (first compound 0.001581 µM)	relative viability (first compound 0.005 µM)	relative viability (first compound 0.01581 µM)	relative viability (first compound 0.05 µM)
EMC-BAC-2	1.06	0.922	1.19	0.721
NCI-H1651	0.859	0.904		0.96
HCC-827	0.61	0.755	0.664	0.743
SW 1573	0.19	0.248	0.478	0.285
NCI-H460	0.0278	0.039	0.0382	0.0351
NCI-H647	0.145	0.149	0.171	0.107
NCI-H322M	0.979	1.11		1.44
NCI-H1666	0.888	0.931	1.01	0.946
NCI-H2342	0.784	0.887	0.737	0.755
ChaGo-K-1	0.518	0.691	0.518	0.633
CAL-12T	0.192	0.298	0.401	0.326
LOU-NH91	0.391	0.321	0.33	0.342
NCI-H1975	0.255	0.282	0.174	0.353
LC-2-ad	1.1	1.03	0.942	0.901
ABC-1	0.518	0.243		0.369
NCI-H2405	0.892	0.924	0.733	1.08
NCI-H1355	0.599	0.674	0.606	0.923
NCI-H2085	0.435	0.478	0.439	0.493
HOP-62	0.837	0.85	0.987	1.07
NCI-H2126	0.817	0.831	0.84	0.811
LXF-289	0.76	0.561	0.627	0.749
RERF-LC-KJ			1.22	1.06
NCI-H661	0.898	0.894	0.907	0.853
NCI-H1395	0.579	0.685	0.805	0.91

Cell Line	relative viability (first compound 0.001581 µM)	relative viability (first compound 0.005 µM)	relative viability (first compound 0.01581 µM)	relative viability (first compound 0.05 µM)
SW 900	0.168	0.169	0.208	0.188
COR-L23	0.635	0.739	0.65	0.926
NCI-H1650	0.2	0.21	0.189	0.211
HCC-44	0.921	1.12	0.96	1.2
PC-3 [JPC-3]	0.628	0.67	0.638	0.557
NCI-H23	0.212	0.207		0.276
NCI-H596			0.931	0.551
LU99A	0.215	0.227	0.271	0.266
NCI-H1623	0.405	0.551	0.572	0.543
LCLC-97TM1	0.766	0.794	0.785	0.857
LCLC-103H	0.877	0.943	0.896	0.886
NCI-H358	0.225	0.279	0.357	0.417
NCI-H1563	0.509	0.551	0.52	0.52
SK-MES-1	0.773	0.925	0.683	0.956
NCI-H838	0.33	0.318		0.204
HCC-15	0.264	0.323	0.278	0.301
EPLC-272H	0.24		0.205	0.381
UMC-11	0.933	1.23	1.06	1.14
HARA	0.39	0.727	0.733	1.21
NCI-H2170	0.798	0.606	0.626	0.786
201T	1.11	1.17	0.99	1.23
NCI-H1944	0.64	0.714	0.757	0.802
H3255	0.731	0.956	0.653	0.824
NCI-H1437	1.11	0.986	1.12	1.14

Cell Line	relative viability (first compound 0.001581 µM)	relative viability (first compound 0.005 µM)	relative viability (first compound 0.01581 µM)	relative viability (first compound 0.05 µM)
NCI-H2347	0.616	0.239	0.262	0.692
SK-LU-1	0.191	0.185	0.194	0.177
NCI-H2087	0.171	0.135	0.176	0.148
NCI-H727	0.67	0.236	0.507	0.311
NCI-H520	0.228	0.276	0.247	0.212
NCI-H1734	0.172	0.192	0.17	0.188
A-427	0.665	0.845	0.906	0.897
NCI-H2023	0.745	0.615	0.788	0.65
NCI-H1915	0.756	0.782	0.693	0.829
LK-2	0.178	0.202	0.191	0.171
NCI-H1755	0.259	0.49	0.329	0.437
NCI-H650	0.704	0.68	0.745	0.636
NCI-H441	0.313	0.388		0.422
NCI-H3122	0.0928	0.0812	0.0752	0.0956
NCI-H1793	0.23	0.282	0.239	0.18
COR-L 105	0.619	0.728	0.837	0.862
NCI-H1993	0.848	1.02	0.888	0.946
BEN	0.332	0.325	0.634	0.392
NCI-H2009	0.959	0.987	1.02	1.09
NCI-H522	0.953	1.03	1.2	1.29
NCI-H2228	0.136	0.205	0.144	0.15
NCI-H1792		0.594	0.496	0.579
PC-14	0.171	0.168	0.105	0.143
EKVX	0.859	0.972	0.787	0.803
